What is called IC50 is the concentration that inhibits the measured activity by half.

Counter-ions that a name gives are not always drawn.

The source of these data is US6855843B2, “Inhibitors of α4 mediated cell adhesion” (Tanabe Seiyaku Co., Ltd., priority 1998, dated 2005).

The assay addresses T1, α4β7 (adhesion of RPMI cells to CS-1) (Homo sapiens, UniProt P13612+P26010).
T1 construct: endogenous in cells
T1 sequence (P13612 34-1032): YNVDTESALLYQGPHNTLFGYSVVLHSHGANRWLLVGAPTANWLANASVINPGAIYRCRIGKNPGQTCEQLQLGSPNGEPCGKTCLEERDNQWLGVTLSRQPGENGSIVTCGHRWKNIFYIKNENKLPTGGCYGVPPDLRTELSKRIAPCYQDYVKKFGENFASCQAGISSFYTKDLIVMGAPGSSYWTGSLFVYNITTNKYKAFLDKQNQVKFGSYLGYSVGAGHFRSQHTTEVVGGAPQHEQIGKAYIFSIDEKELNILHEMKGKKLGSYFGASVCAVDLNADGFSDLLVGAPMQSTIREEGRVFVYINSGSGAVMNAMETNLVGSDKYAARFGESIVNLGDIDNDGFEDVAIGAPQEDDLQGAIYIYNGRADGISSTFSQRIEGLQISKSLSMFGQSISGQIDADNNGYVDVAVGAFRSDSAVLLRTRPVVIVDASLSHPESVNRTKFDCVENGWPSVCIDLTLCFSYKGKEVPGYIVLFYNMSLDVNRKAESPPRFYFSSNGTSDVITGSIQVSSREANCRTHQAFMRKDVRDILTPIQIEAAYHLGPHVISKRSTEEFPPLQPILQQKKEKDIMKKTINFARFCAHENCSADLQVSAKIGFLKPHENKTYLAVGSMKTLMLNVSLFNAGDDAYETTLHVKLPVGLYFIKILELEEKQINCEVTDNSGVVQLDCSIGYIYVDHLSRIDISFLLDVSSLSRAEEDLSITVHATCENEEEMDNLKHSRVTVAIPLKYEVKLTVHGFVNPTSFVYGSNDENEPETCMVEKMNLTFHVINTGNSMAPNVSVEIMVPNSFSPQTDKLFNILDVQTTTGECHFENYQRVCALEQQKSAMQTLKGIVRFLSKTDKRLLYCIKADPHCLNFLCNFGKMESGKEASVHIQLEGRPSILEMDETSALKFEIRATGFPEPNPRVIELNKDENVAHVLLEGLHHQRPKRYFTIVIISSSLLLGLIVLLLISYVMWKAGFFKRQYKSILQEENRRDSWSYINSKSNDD
T1 sequence (P26010 20-798): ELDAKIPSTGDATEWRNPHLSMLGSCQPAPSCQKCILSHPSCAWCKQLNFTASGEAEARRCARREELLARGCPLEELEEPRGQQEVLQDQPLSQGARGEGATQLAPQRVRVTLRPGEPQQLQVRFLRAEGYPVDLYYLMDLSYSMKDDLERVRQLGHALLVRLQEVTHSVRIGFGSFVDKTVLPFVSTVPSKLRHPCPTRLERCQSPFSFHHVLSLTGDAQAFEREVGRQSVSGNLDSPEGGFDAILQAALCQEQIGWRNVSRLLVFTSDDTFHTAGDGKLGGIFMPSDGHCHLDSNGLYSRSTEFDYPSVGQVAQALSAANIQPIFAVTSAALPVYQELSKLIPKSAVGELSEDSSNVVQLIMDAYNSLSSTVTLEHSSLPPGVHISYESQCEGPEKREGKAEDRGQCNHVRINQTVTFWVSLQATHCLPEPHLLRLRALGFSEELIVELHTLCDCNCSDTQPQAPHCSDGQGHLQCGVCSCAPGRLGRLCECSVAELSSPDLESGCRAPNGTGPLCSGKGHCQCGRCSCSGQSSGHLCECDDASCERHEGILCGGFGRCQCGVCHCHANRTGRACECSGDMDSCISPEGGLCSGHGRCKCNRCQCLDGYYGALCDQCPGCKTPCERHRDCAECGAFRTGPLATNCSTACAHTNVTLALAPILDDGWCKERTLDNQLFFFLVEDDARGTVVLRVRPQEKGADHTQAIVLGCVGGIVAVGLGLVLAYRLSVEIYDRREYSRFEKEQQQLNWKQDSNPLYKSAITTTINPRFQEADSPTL
As to the kind of experiment: RPMI-CS-1 cell adhesion assay. The settings on record: adhesion of RPMI B-cell line (expresses α4β7) to CS-1 peptide coated microwells; read-out: RPMI-CS-1 IC50 value range. In kind it is cell-based.
As to `COc1ccccc1-c1ccc(C[C@@H](NC(=O)c2cccc(NS(=O)(=O)C(F)(F)F)c2Cl)C(=O)O)cc1` [Example 186, N-[2-Chloro-3-[(trifluoromethanesulfonyl)amino]-benzoyl]-4-(2-methoxyphenyl)-D-phenylalanine], the IC50 lay in the range of 300 to 1000 nM.

For `COc1cc(CN(C)CCN(C)C)cc(OC)c1-c1ccc(C[C@H](NC(=O)c2c(Cl)cccc2Cl)C(=O)O)cc1` [Example 247], the IC50 is less than 300 nM.

Regarding `COC(=O)[C@H](Cc1ccc(-c2ccccc2CNc2ccccn2)cc1)NC(=O)c1c(Cl)cccc1Cl` [Example 115], the IC50 was 1000 to 5000 nM.

In the case of `CCCOc1ccc(C(=O)N[C@@H](Cc2ccc(-c3c(OC)cccc3OC)cc2)C(=O)O)c(Cl)c1` [Example 286], the IC50 was less than 300 nM.

For `COc1ccccc1-c1ccc(C[C@H](NC(=O)c2ccc(NS(=O)(=O)c3ccccc3)cc2Cl)C(=O)O)cc1` [Example 68, N-[2-Chloro-4-(benzenesulfonylamino)benzoyl]-4-(2-methoxyphenyl)-L-phenylalanine], the IC50 was less than 300 nM.

For `COc1c(F)cc2c(c1-c1ccc(C[C@H](NC(=O)c3c(Cl)cccc3Cl)C(=O)O)cc1)OCO2` [Example 154, N-(2,6-Dichlorobenzoyl)-4-(2,3-methylenedioxy-5-fluoro-6-methoxyphenyl)-L-phenylalanine], the IC50 was less than 300 nM.

As for `COc1ccc2c(c1-c1ccc(C[C@H](NC(=O)c3c(Cl)cccc3Cl)C(=O)O)cc1)OCO2` [Example 240, N-(2,6-Dichlorobenzoyl)-4-(2,3-methylenedioxy-6-methoxyphenyl)-L-phenylalanine], the IC50 is less than 300 nM.

Take `CN(C)C(=O)c1ccccc1-c1ccc(C[C@H](NC(=O)c2c(Cl)cccc2Cl)C(=O)O)cc1` [Example 58, N-(2,6-Dichlorobenzoyl)-4-[2-(N,N-dimethylcarbamoyl)phenyl]-L-phenylalanine]: the IC50 was 300 to 1000 nM.

In the case of `CN(C)S(=O)(=O)c1ccccc1-c1ccc(C[C@H](NC(=O)c2c(Cl)cccc2Cl)C(=O)O)cc1` [Example 21, N-(2,6-Dichlorobenzoyl)-4-[2-(N,N-dimethylsulfamoyl)phenyl]-L-phenylalanine], the IC50 is less than 300 nM.

As to `COc1ccccc1-c1ccc(C[C@H](NC(=O)c2ccc(S(N)(=O)=O)cc2)C(=O)O)cc1` [Example 210], the IC50 fell in the range of 1000 to 5000 nM.

As for `CC(C)Oc1ccccc1-c1ccc(C[C@H](NC(=O)c2c(Cl)cccc2Cl)C(=O)O)cc1` [Example 225, N-(2,6-Dichlorobenzoyl)-4-(2-i-propoxyphenyl)-L-phenylalanine], the IC50 lay in the range of 1000 to 5000 nM.

As to `COC(=O)[C@H](Cc1ccc(-c2ccccc2OC)cc1)NC(=O)c1c(Cl)cccc1Cl` [Example 1A, N-(2,6-Dichlorobenzoyl)-4-(2-methoxyphenyl)-L-phenylalanine methyl ester], the IC50 is 300 to 1000 nM.

Consider `COc1cccc(OC)c1-c1ccc(C[C@H](NC(=O)c2c(Cl)cc(-c3cccnc3)cc2Cl)C(=O)O)cc1` [Example 311], for which the IC50 is less than 300 nM.

For `CCOC(=O)[C@H](Cc1ccc(-c2c(OC)cc(CN(C)C)cc2OC)cc1)NC(=O)c1c(Cl)cccc1Cl` [Example 259, N-(2,6-Dichlorobenzoyl)-4-[2,6-dimethoxy-4-[(N,N-dimethylamino)methyl]phenyl]-L-phenylalanine ethyl ester hydrochloride], the IC50 is less than 300 nM.

For `COc1ccccc1-c1ccc(C[C@H](NC(=O)c2c(Cl)cc(NS(=O)(=O)C(F)(F)F)cc2Cl)C(=O)O)cc1` [Example 182, N-[2,6-Dichloro-4-[(trifluoromethanesulfonyl)amino]benzoyl]-4-(2-methoxyphenyl)-L-phenylalanine], the IC50 is less than 300 nM.

As to `O=C(N[C@@H](Cc1ccc(-c2ccccc2OCc2cccnc2)cc1)C(=O)O)c1c(Cl)cccc1Cl` [Example 40], the IC50 lay within 300 to 1000 nM.

For `O=C(N[C@@H](Cc1ccc(-c2ccccc2OCCCO)cc1)C(=O)O)c1c(Cl)cccc1Cl` [Example 37], the IC50 was in the range of 300 to 1000 nM.

In the case of `CC(=O)Nc1cccc(-c2ccc(C[C@H](NC(=O)c3c(Cl)cccc3Cl)C(=O)O)cc2)c1` [Example 124], the IC50 is 1000 to 5000 nM.
